Like-named read-outs stand apart in the source and are kept apart here.
Tests used:
CB2R = CB2R (Homo sapiens, UniProt P34972); assay: CB2R radioligand displacement binding assay (CP55940 radioligand)
Procedure: Detailed radioligand displacement assays (using the well-characterized CBR agonist […] as the radioligand) were conducted to determine the affinity (Ki) of the test compounds for CB1R and CB2R as has been previously described by our group^112,113. Heterologous competition binding assays were performed to calculate receptor affinities. Unlabeled SR141716 or SR144528 were used as appropriate controls for non-specific binding (NSB) in the assay. Calculation of the equilibrium dissociation constant (Ki) was performed using the Cheng-Prusoff equation.

CB1R = CB1R (Homo sapiens, UniProt P21554); assay: CB1R radioligand displacement binding assay (CP55940 radioligand)
Procedure: Heterologous competition binding assays were performed to calculate receptor affinities. Unlabeled SR141716 or SR144528 were used as appropriate controls for non-specific binding (NSB) in the assay. Calculation of the equilibrium dissociation constant (Ki) was performed using the Cheng-Prusoff equation.

[1] = Table 1, CP55940 radioligand, read-out: CB1_KI_CP

Chain of CB1R (P21554 whole entry): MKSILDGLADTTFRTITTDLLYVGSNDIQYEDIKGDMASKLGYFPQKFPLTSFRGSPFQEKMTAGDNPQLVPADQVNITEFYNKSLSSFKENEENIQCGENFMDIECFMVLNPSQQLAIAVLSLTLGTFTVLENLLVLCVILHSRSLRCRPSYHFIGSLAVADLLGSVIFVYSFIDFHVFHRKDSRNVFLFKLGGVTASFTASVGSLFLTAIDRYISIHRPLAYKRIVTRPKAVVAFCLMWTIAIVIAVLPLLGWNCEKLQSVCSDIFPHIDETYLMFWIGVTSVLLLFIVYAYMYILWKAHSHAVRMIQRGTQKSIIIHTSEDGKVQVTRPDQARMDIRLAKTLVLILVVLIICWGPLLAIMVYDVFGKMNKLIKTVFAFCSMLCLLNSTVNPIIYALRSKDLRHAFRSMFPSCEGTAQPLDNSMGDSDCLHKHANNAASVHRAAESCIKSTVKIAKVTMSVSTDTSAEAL
Chain of CB2R (P34972 whole entry): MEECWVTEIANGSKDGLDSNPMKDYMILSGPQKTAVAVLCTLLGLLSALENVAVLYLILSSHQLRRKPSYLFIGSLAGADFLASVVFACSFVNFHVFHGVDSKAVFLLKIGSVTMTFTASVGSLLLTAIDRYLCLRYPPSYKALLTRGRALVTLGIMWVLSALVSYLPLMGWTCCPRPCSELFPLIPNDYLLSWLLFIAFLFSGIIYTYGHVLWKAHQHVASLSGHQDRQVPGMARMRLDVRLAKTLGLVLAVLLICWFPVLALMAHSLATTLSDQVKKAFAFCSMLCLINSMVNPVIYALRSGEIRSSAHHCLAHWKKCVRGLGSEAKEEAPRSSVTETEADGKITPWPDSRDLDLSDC

SMILES	Ki (CB2R)	Ki (CB1R; [1])	further results
CCCCCn1cc(C(=O)c2cccc3ccccc23)c2ccccc21 [Compound 1, 3-(naphthalene-1-carbonyl)-1-pentyl-1H-indole, reference compound]	0.00738 µM	0.00431 µM	
C1=C(CCN2CCOCC2)c2ccccc2/C1=C/c1ccc2c3c(cccc13)CC2 [Compound 12, 4-{2-[(1E)-1-(1,2-dihydroacenaphth-ylen-5-ylmethylidene)-1H-inden-3-yl]ethyl} morpholine]			Ki (CB2R; Table 1, CP55940 radioligand, read-out: CB2_KI_CP): 0.00422 µM; Ki (CB1R; read-out: CB1R binding affinity (Ki)): 0.0159 µM
C1=C(CCN2CCOCC2)c2ccccc2/C1=C/c1cccc2ccc3ccccc3c12 [Compound 13, 4-{2-[(1E)-1-(phenanthren-4-ylmethylidene)-1H-inden-3-yl]ethyl} morpholine]	0.006 µM	0.0229 µM	
C1=C(CCN2CCOCC2)c2ccccc2/C1=C/c1ccnc2ccccc12 [Compound 14, 4-{[(1E)-3-[2-(morpholin-4-yl)ethyl]-1H-inden-1-ylidene]methyl} quinoline]	0.0121 µM	0.0233 µM	Ki (CB1R): 0.023 µM
CC1=C(CCN2CCOCC2)c2ccccc2/C1=C/c1cccc2ccccc12 [Compound 15, 4-{2-[(1E)-2-methyl-1-(naphthalen-1-ylmethylidene)-1H-inden-3-yl]ethyl} morpholine]	0.00284 µM		
C1=C(CCN2CCOCC2)c2ccccc2/C1=C/c1ccccc1-c1ccccc1 [Compound 16, 4-{2-[(1E)-1-[(2-phenylphenyl)methylidene]-1H-inden-3-yl]ethyl} morpholine]	0.0153 µM	0.0829 µM	
C1=C(CCN2CCOCC2)c2ccccc2/C1=C/c1cccc2cc[nH]c12 [Compound 17, 7-{[(1E)-3-[2-(morpholin-4-yl)ethyl]-1H-inden-1-ylidene]methyl}-1H-indole]	0.0087 µM	0.107 µM	
COc1ccccc1/C=C1\C=C(CCN2CCOCC2)c2ccccc21 [Compound 18, 4-{2-[(1E)-1-[(2-methoxyphenyl)meth-ylidene]-1H-inden-3-yl]ethyl} morpholine]	0.0298 µM	0.149 µM	
CCCCCC1=C/C(=C\c2cccc3ccccc23)c2ccccc21 [Compound 19, 1-{[(1E)-3-pentyl-1H-inden-1-ylidene]methyl} naphthalene, reference compound]	0.163 µM	0.0172 µM	
C1=C(CCN2CCOCC2)c2ccccc2/C1=C/c1ccc2ccccc2c1 [Compound 20, 4-{2-[(1E)-1-(naphthalen-2-ylmethylidene)-1H-inden-3-yl]ethyl} morpholine]	0.0244 µM	0.134 µM	
CCCCCCC1=C/C(=C\c2cccc3ccccc23)c2ccccc21 [Compound 21, 1-{[(1E)-3-hexyl-1H-inden-1-ylidene]methyl} naphthalene]	1.45 µM		
C1=C(CCN2CCOCC2)c2ccccc2/C1=C/c1cccc2cnccc12 [Compound 22, 5-{[(1E)-3-[2-(morpholin-4-yl)ethyl]-1H-inden-1-ylidene]methyl} isoquinoline]	0.0514 µM	0.454 µM	
Ic1ccccc1/C=C1\C=C(CCN2CCOCC2)c2ccccc21 [Compound 23, 4-{2-[(1E)-1-[(2-iodophenyl)methyl-idene]-1H-inden-3-yl]ethyl} morpholine]	0.109 µM	0.607 µM	
Cc1ccccc1/C=C1\C=C(CCN2CCOCC2)c2ccccc21 [Compound 24, 4-{2-[(1E)-1-[(2-methylphenyl)methylidene]-1H-inden-3-yl]ethyl} morpholine]	0.0954 µM	0.623 µM	
Brc1ccccc1/C=C1\C=C(CCN2CCOCC2)c2ccccc21 [Compound 25, 4-{2-[(1E)-1-[(2-bromophenyl)methylidene]-1H-inden-3-yl]ethyl} morpholine]	0.206 µM	0.647 µM	
Clc1ccccc1/C=C1\C=C(CCN2CCOCC2)c2ccccc21 [Compound 26, 4-{2-[(1E)-1-[(2-chlorophenyl)methylidene]-1H-inden-3-yl]ethyl} morpholine]		0.862 µM	
Fc1ccccc1/C=C1\C=C(CCN2CCOCC2)c2ccccc21 [Compound 28, 4-{2-[(1E)-1-[(2-fluorophenyl)methylidene]-1H-inden-3-yl]ethyl} morpholine]	0.429 µM	1 µM	
C1=C(CCN2CCOCC2)c2ccccc2/C1=C/c1ccccc1 [Compound 29, 4-{2-[(1E)-1-(phenyl-methylidene)-1H-inden-3-yl]ethyl} morpholine]	0.295 µM	1.3 µM	

SMILES	Ki (CB2R)	Ki (CB1R; [1])	further results
C1=C(CCN2CCOCC2)c2ccccc2/C1=C/c1cccs1 [Compound 30, 4-{2-[(1E)-1-(thiophen-2-ylmethylidene)-1H-indene-3-yl]ethyl} morpholine]	3.02 µM	8.53 µM	
C1=C(CCN2CCOCC2)c2ccccc2/C1=C/c1ccco1 [Compound 31, 4-{2-[(1E)-1-(furan-2-ylmethylidene)-1H-inden-3-yl]ethyl} morpholine]	1.26 µM		
C[N+]1(CCC2=C/C(=C\c3cccc4ccccc34)c3ccccc32)CCOCC1 [Compound 35, 4-methyl-4-{2-[(1E)-1-(naphthalen-1-ylmethylidene)-1H-inden-3-yl]ethyl} morpholin-4-ium iodide]		0.982 µM	
CC1=C(CC[N+]2(C)CCOCC2)c2ccccc2/C1=C/c1cccc2ccccc12 [Compound 36, 4-methyl-4-{2-[(1E)-2-methyl-1-(naphthalen-1-ylmethylidene)-1H-inden-3-yl]ethyl} morpholin-4-ium iodide]		1.61 µM	
C1=C(CCN2CCOCC2)c2ccccc2/C1=C/c1cccc(-c2ccccc2)c1 [Compound 37, 4-{2-[(1E)-1-[(3-phenylphenyl)methylidene]-1H-inden-3-yl]ethyl} morpholine]	0.132 µM	2.6 µM	
CCCCCCC1=C/C(=C\Cc2ccccc2)c2ccccc21 [Compound 38, (1E)-3-hexyl-1-(2-phenyl-ethylidene)-1H-indene]	13.7 µM		Ki (CB1R): 4.41 µM
O=C(c1cccc2ccccc12)c1cn(CCN2CCOCC2)c2ccccc12 [Compound 39, 1-[2-(morpholin-4-yl)ethyl]-3-(naphthalene-1-carbonyl)-1H-indole, reference compound]		0.0816 µM	
COc1ccc(C(=O)c2cn(CC[N+]3(C)CCOCC3)c3ccccc23)c2ccccc12 [Compound 41, 4-{2-[3-(4-methoxynaphth-alene-1-carbonyl)-1H-indol-1-yl]ethyl}-4-methylmorpholin-4-ium iodide]		4.08 µM	
COc1ccc(C(=O)c2cn(CCN3CCOCC3)c3ccccc23)c2ccccc12 [Compound 42, 3-(4-methoxynaphtha-lene-1-carbonyl)-1-[2-(morpholin-4-yl)ethyl]-1H-indole, reference compound]		0.0881 µM	
Cc1ccc(C(=O)c2cn(CC[N+]3(C)CCOCC3)c3ccccc23)c2ccccc12 [Compound 43, 4-methyl-4-{2-[3-(4-methyl-naphthalene-1-carbonyl)-1H-indol-1-yl]ethyl}morpholin-4-ium iodide]		4.17 µM	
Cc1ccc(C(=O)c2cn(CCN3CCOCC3)c3ccccc23)c2ccccc12 [Compound 44, 3-(4-methyl-naphthalene-1-carbonyl)-1-[2-(morpholin-4-yl)ethyl]-1H-indole, reference compound]		0.0202 µM	
CCOC(=O)CCCn1cc(C(=O)c2cccc3ccccc23)c2ccccc21 [Compound 50, ethyl 4-[3-(naphthalene-1-carbonyl)-1H-indol-1-yl]butanoate]		0.747 µM	
CCOC(=O)CCCCn1cc(C(=O)c2cccc3ccccc23)c2ccccc21 [Compound 53, ethyl 5-[3-(naphthalene-1-carbonyl)-1H-indol-1-yl]pentanoate]		1.47 µM	
CCCCCn1cc(C(=O)c2ccc(C(=O)OCC)c3ccccc23)c2ccccc21 [Compound 58, ethyl 4-(1-pentyl-1H-indole-3-carbonyl)naphth-alene-1-carboxylate]	0.0539 µM	0.115 µM	
CCCCCn1cc(C(=O)c2ccc(C(N)=O)c3ccccc23)c2ccccc21 [Compound 59, 4-(1-pentyl-1H-indole-3-carbonyl)naph-thalene-1-carboxamide]	0.135 µM	0.0966 µM	
CCCCCn1cc(C(=O)c2ccc(C(=O)NC)c3ccccc23)c2ccccc21 [Compound 60, N-methyl-4-(1-pentyl-1H-indole-3-carbonyl) naphthalene-1-carboxamide]	0.303 µM	0.127 µM	
O=C(c1cccc2ccccc12)c1cn(CCCCCF)c2cccc(F)c12 [Compound 66, 4-fluoro-1-(5-fluoropentyl)-3-(naphthalene-1-carbonyl)-1H-indole]	0.00294 µM	0.00438 µM	
O=C(c1cccc2ccccc12)c1cn(CCN2CCOCC2)c2cccc(F)c12 [Compound 68, 4-fluoro-1-[2-(morpholin-4-yl)ethyl]-3-(naphthalene-1-carbonyl)-1H-indole]	0.0952 µM	0.237 µM	

From patent US9656981B2, “Peripherally-acting cannabinoid receptor agonists for chronic pain” (The Regents of the University of California, priority 2012, dated 2017)
